Measured values published in publication PMC4164784, “4E-BPs require non-canonical 4E-binding motifs and a lateral surface of eIF4E to repress translation” (Nature Communications, 2014).
No end group written: not given here.

How the values were obtained:
[1] = molecular target: T1, eIF4E–eIF4G complex (eIF4E WT; eIF4G residues 578–650) (Drosophila melanogaster, UniProt P48598); assay: Kinetic dissociation of eIF4E–eIF4G complexes by competitor; format: biochemical; conditions: 1 μM complex on Strep-Tactin beads; fivefold molar excess of C+NC peptide (5 μM); CUP n=3, 4E-T n=2 averages
T1 construct: full-length eIF4E (WT or the II-AA mutant) containing an N-terminal SNH-tag was coexpressed; made in house; host or cells: E. coli BL21 Star (DE3), coexpression
T1 sequence (P48598 1-248 isoform P48598-2): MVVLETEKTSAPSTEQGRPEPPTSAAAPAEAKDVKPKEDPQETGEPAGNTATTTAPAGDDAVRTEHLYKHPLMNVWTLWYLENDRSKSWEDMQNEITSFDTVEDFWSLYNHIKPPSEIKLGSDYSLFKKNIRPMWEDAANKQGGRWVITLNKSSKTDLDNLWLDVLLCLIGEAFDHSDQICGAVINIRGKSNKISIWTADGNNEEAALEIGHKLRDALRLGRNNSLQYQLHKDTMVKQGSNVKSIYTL
Method: To obtain the preassembled eIF4E–eIF4G complexes used in Figs 4 and 5d–g, full-length eIF4E (WT or the II-AA mutant) containing an N-terminal SNH-tag was coexpressed with an N-terminal GST-tagged eIF4G (residues 578–650). The cells were lysed by sonication in lysis buffer containing 50 mM HEPES (pH 7.2), 300 mM NaCl and 2 mM DTT. The complexes were purified from the cleared lysates using Protino Glutathione Agarose 4B beads (Machery-Nagel). The complex was further purified using a heparin column (HiTrap Heparin HP 5 ml, GE Healthcare) and a final size exclusion chromatography (Superdex 200 16/60, GE Healtcare) in 20 mM HEPES (pH 7.2), 200 mM NaCl and 2 mM DTT.
In the ‘kinetic assays’ shown in Fig. 5d–g, the purified complexes containing SHN-eIF4E and GST-eIF4G (578–650; 1 μM) were incubated with Strep-Tactin beads for 20 min. […] The eIF4E-associated proteins were pulled down, eluted and analyzed as described above. […]
The amounts of GST-eIF4G bound to eIF4E in each experimental condition were determined using the Image J software after Coomassie blue staining. […]
Each experiment was repeated at least twice. (e,f) Quantification of the experiments shown in Fig. 5d–g. […]
micrographs of fixed S2 cells expressing HA-4E-T and GFP-Tral. The localization of HA-4E-T was determined by indirect immunofluorescence using an anti-HA antibody. […]

[2] = test system: eIF4E II-AA mutant (full length); assay: GST/MBP pull-down of full-length eIF4E II-AA mutant, coexpressed in E. coli; format: binding, Drosophila melanogaster; conditions: recombinant CUP (311–440), Thor (full length), 4E-T (1–58) or eIF4G (578–650), WT or mutant, SDS–PAGE
Method: (§1) For the pull-down assays shown in Fig. 3 and Supplementary Fig. 6a, the full-length His6- or SHN-tagged eIF4E (WT or II-AA mutant) was coexpressed with GST or MBP-tagged protein fragments, including CUP (residues 311–440), Thor (full length), 4E-T (residues 1–58) or eIF4G (residues 578–650) in E. coli BL21 (DE3) STAR cells in autoinducing medium[44] overnight at 20 °C. The cells were resuspended in lysis buffer (20 mM Tris–HCl (pH 7.5), 100 mM NaCl, 1 mM DTT) supplemented with EDTA-free protease inhibitor (Roche) and lysed by sonication. The cleared lysates were incubated for 1 h with 20 μl of Protino Glutathione Agarose 4B beads (Macherey-Nagel) or amylose resin (New England Biolabs). The beads were washed three times with lysis buffer, and the bound proteins were eluted with lysis buffer containing 25 mM L-glutathione or 25 mM maltose for 15 min. The proteins were analyzed by 10–15% SDS–PAGE followed by Coomassie blue staining.

endogenous eIF4E = assay: Coimmunoprecipitation / m7GTP pull-down with endogenous eIF4E in S2 cell lysates; format: cell-based, Drosophila melanogaster; conditions: western blot
Summary of the method: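 S2 cell lysates expressing HA-tagged 4E-BPs (CUP, Thor, 4E-T), eIF4G or mutants, immunoprecipitated with anti-eIF4E or anti-HA antibodies, or pulled down with m7GTP beads for 1 h at 4 °C. Washes in NET buffer (50 mM Tris pH 7.4, 150 mM NaCl, 1 mM EDTA, 0.1% Triton X-100). Bound proteins detected by anti-HA/anti-eIF4E western blot; pre-immune serum and HA-MBP as negative controls.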

eIF4E (full length, WT) = assay: GST/MBP pull-down of full-length WT eIF4E, coexpressed in E. coli; format: binding, Drosophila melanogaster; conditions: recombinant CUP (311–440), Thor (full length), 4E-T (1–58) or eIF4G (578–650), WT or mutant, SDS–PAGE
Method: as §1

Substance | time to 50% eIF4G dissociation [1] [min] | binding to eIF4E II-AA mutant (in words) [2] | interaction with endogenous eIF4E (in words) (endogenous eIF4E) | binding to WT eIF4E (in words) (eIF4E (full length, WT))
CUP C+NC: CUP residues 325–376, eIF4E-binding region short, C-terminal GB1 (KSYTRSRLMDIRNGMFNALMHRSKESFVMPRIATCDDIELEGRLRRMNIWRT-GB1; UniProt Q9VMA3 325-376, looked up, fragment) | 2.5 ± 0.5 | – | – | –
4E-T C: 4E-T residues 9–21, canonical motif | – | reduced binding | drastic reduction | reduced binding
Thor C: Thor residues 50–63, canonical motif | – | strongly impaired in their binding | disrupted the interaction with eIF4E | –
